The values below come from patent US20050009840A1 (SUGEN, INC., priority 2003, published 2005).

The target in one experiment is T1, Met kinase domain (GST fusion protein) (Homo sapiens, UniProt P08581).
T1 construct: Purified GST fusion protein containing the Met kinase domain
T1 sequence (P08581 1078-1345 limits assumed): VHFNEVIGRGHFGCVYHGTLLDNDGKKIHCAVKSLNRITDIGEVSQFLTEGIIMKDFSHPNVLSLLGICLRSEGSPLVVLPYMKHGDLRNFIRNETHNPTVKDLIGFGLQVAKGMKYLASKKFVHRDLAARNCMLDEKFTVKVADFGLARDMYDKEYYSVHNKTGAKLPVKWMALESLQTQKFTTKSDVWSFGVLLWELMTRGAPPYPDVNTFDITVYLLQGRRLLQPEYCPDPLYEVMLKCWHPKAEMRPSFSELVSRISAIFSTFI
The experiment is described as follows: Met transphosphorylation assay (ELISA, poly(glu-tyr) substrate).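 Note: Cell-free ELISA with plate-bound poly(Glu:Tyr 4:1) phosphorylated by GST-fused Met kinase domain plus ATP and Mn2+, phosphotyrosine detected by anti-phosphotyrosine antibody with HRP and ABTS read-out.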 The format is biochemical. Conditions: Table 2; read-out: Met IC50. For orientation: In an ELISA, binding on a coated surface is turned into a signal by an enzyme label.
Description: General procedure is as follows: a compound is introduced to cells expressing the test kinase, either naturally or recombinantly, for a selected period of time after which, if the test kinase is a receptor, a ligand known to activate the receptor is added. The cells are lysed and the lysate is transferred to the wells of an ELISA plate previously coated with a specific antibody recognizing the substrate of the enzymatic phosphorylation reaction. Non-substrate components of the cell lysate are washed away and the amount of phosphorylation on the substrate is detected with an antibody specifically recognizing phosphotyrosine compared with control cells that were not contacted with a test compound.
Met Transphosphorylation Assay
This assay is used to measure phosphotyrosine levels on a poly(glutamic acid:tyrosine, 4:1) substrate as a means for identifying agonists/antagonists of met transphosphorylation of the substrate.
PBS, Gibco Catalog # 450-1300EB • 4. 50 mM HEPES • 5. […] Purified GST fusion protein containing the Met kinase domain, SUGEN, Inc. • 7. TBST Buffer. • 8. 10% aqueous (MilliQue H2O) DMSO. • 9. […] 2× Kinase Dilution Buffer: for 100 mL, mix 10 mL 1M HEPESat pH 7.5 with 0.4 mL 5% BSA/PBS, 0.2 mL 0.1 M sodium orthovanadate and 1 mL 5M sodium chloride in 88.4 mL dH2O. • 11. 4× ATP Reaction Mixture: for 10 mL, mix 0.4 mL 1 M manganese chloride and 0.02 mL 0.1 M ATP in 9.56 mL dH2O. • 12. 4× Negative Controls Mixture: for 10 mL, mix 0.4 mL 1 M manganese chloride in 9.6 mL dH2O. • 13. […] 500 mM EDTA. • 15. Antibody Dilution Buffer: for 100 mL, mix 10 mL 5% BSA/PBS, 0.5 mL 5% Carnation® Instant Milk in PBS and 0.1 mL 0.1 M sodium orthovanadate in 88.4 mL TBST. • 16. Rabbit polyclonal antophosphotyrosine antibody, SUGEN, Inc. • 17. Goat anti-rabbit horseradish peroxidase conjugated antibody, Biosource, Inc. • 18. ABTS Solution: for 1 L, mix 19.21 g citric acid, 35.49 g Na2HPO4 and 500 mg ABTS with sufficient dH2O to make 1 L. • 19. ABTS/H2O2: mix 15 mL ABST solution with 2μL H2O2 five minutes before use. • 20. 0.2 M HCl Procedure: • 1. Coat ELISA plates with 2 μg Poly(Glu-Tyr) in 100 μL PBS, hold-overnight at 4° C. • 2. Block plate with 150 μL of 5% BSA/PBS for 60 min. • 3. Wash plate twice with PBS then once with 50 mM Hepes buffer pH 7.4. • 4. Add 50 μl of the diluted kinase to all wells. (Purified kinase is diluted with Kinase Dilution Buffer. Final concentration should be 10 ng/well.) • 5. Add 25 μL of the test compound (in 4% DMSO) or DMSO alone (4% in dH2O) for controls to plate. • 6. Incubate the kinase/compound mixture for 15 minutes. • 7. Add 25 μL of 40 mM MnCl2 to the negative control wells. • 8. Add 25 μL ATP/MnCl2 mixture to the all other wells (except the negative controls). Incubate for 5 min. • 9. Add 25 μL 500 mM EDTA to stop reaction. • 10. Wash plate 3× with TBST. • 11. Add 100 μL rabbit polyclonal anti-Ptyr diluted 1:10,000 in Antibody Dilution Buffer to each well. Incubate, with shaking, at room temperature for one hour. • 12. Wash plate 3× with TBST. • 13. […] Add 100 μL per well and incubate at room temperature, with shaking, for one hour. • 14. Wash plate 1× with PBS. • 15. Add 100 μl of ABTS/H2O2 solution to each well. • 16. If necessary, stop the development reaction with the addition of 100 μl of 0.2M HCl per well. • 17.
Take `CC(=O)N1CCN(CCNC(=O)c2cccc(-c3cnc(N)c(OC(C)c4c(Cl)ccc(F)c4Cl)c3)c2)CC1` (stereo not shown) [Example I-315, N-[2-(4-Acetyl-piperazin-1-yl)-ethyl]-3-{6-amino-5-[1-(2,6-dichloro-3-fluoro-phenyl)-ethoxy]-pyridin-3-yl}-benzamide]: the 50% inhibitory concentration (IC50) (usually the midpoint of a concentration-inhibition curve) was found to be 0.069 µM.

Regarding `CN(C)CCS(=O)(=O)Nc1ccc(-c2cnc(N)c(OCc3c(F)ccc(F)c3Cl)c2)cc1` [Example I-249, 2-Dimethylamino-ethanesulfonic acid {4-[6-amino-5-(2-chloro-3,6-difluoro-benzyloxy)-pyridin-3-yl]-phenyl}-amide], the half-inhibitory concentration (IC50) is 0.098 µM.

Take `CC(Oc1cc(-c2cccc(C(=O)N3CC[C@H](N)C3)c2)cnc1N)c1c(F)ccc(F)c1Cl` (stereo partly drawn) [Example I-349, (3-{6-Amino-5-[1-(2-chloro-3,6-difluoro-phenyl)-ethoxy]-pyridin-3-yl}-phenyl)-((S)-3-amino-pyrrolidin-1-yl)-methanone]: the IC50 was 0.13 µM.

As for `CCN(CC)CCS(=O)(=O)Nc1ccc(-c2cnc(N)c(OCc3c(F)ccc(F)c3Cl)c2)cc1` [Example I-243, 2-diethylamino-ethanesulfonic acid {4-[6-amino-5-(2-chloro-3,6-difluoro-benzyloxy)-pyridin-3-yl]-phenyl)amide], the IC50 was determined as 0.043 µM.

As to `CC(Oc1cc(-c2ccc(NS(=O)(=O)CCN(C)C)cc2)cnc1N)c1c(F)ccc(F)c1Cl` (stereo not shown) [Example I-288], the IC50 was determined as 0.15 µM.

As to `CC(Oc1cc(-c2ccc(C(=O)N3CCC(N)CC3)cc2)cnc1N)c1c(Cl)ccc(F)c1Cl` (stereo not shown) [Example I-305, (4-{6-Amino-5-[1-(2,6-dichloro-3-fluoro-phenyl)-ethoxy]-pyridin-3-yl}-phenyl)-(4-amino-piperidin-1-yl)-methanone], the concentration for half-maximal inhibition (IC50) is 0.18 µM.

Turning to `CC(=O)N1CCN(CCNC(=O)c2cccc(-c3cnc(N)c(OCc4c(F)ccc(F)c4Cl)c3)c2)CC1` [Example I-239, N-[2-(4-Acetyl-piperazin-1-yl)-ethyl]-3-[6-amino-5-(2-chloro-3,6-difluoro-benzyloxy)-pyridin-3-yl]-benzamide], the half-maximal inhibitory concentration (IC50) is 0.1 µM.

Regarding `Nc1ncc(-c2ccc(C(=O)N3CC[C@H](N)C3)cc2)cc1OCc1ccc(F)cc1Cl` [Example I-206, {4-(6-Amino-5-(2-chloro-4-fluoro-benzyloxy)-pyridin-3-yl]-phenyl}-[(3S)-3-amino-pyrrolidin-1-yl]-methanone], the IC50 was found to be 1.83 µM.

The same experiment, now with this note: plain numbers in column Met IC50 (μM) of Table 2; read-out: Met IC50.
As for `Nc1ccc(-c2cnc(N)c(OCc3ccccc3Cl)c2)cn1` [Example I-495, 5-(2-Chloro-benzyloxy)-[3,3′]bipyridinyl-6,6′-diamine], the IC50 came to 4.31 µM.

With `Nc1ccc(-c2cnc(N)c(OCc3c(Cl)cccc3Cl)c2)cn1` [Example I-509, 5-(2,6-Dichloro-benzyloxy)-[3,3′]bipyridinyl-6,6′-diamine], the IC50 worked out at 0.578 µM.

As for `CC(Oc1cc(C#CCNC(=O)CN2CCC(O)CC2)cnc1N)c1c(Cl)ccc(F)c1Cl` (stereo not shown) [Example I-428, N-(3-{6-Amino-5-[1-(2,6-dichloro-3-fluoro-phenyl)-ethoxy]-pyridin-3-yl}-prop-2-ynyl)-2-(4-hydroxy-piperidin-1-yl)-acetamide], the IC50 came to 0.012 µM.

As for `CC(Oc1cc(-c2ccc(C(=O)N3CCN(C)CC3)nc2)cnc1N)c1c(F)ccc(F)c1Cl` (stereo not shown) [Example I-521, {6′-Amino-5′-[1-(2-chloro-3,6-difluoro-phenyl)-ethoxy]-[3,3′]bipyridinyl-6-yl}-(4-methyl-piperazin-1-yl)-methanone], the IC50 amounted to 0.0716 µM.

Consider `CC(Oc1cc(C#CCNC(=O)N2C[C@@H](C)N[C@@H](C)C2)cnc1N)c1c(Cl)ccc(F)c1Cl` (stereo partly drawn) [Example I-415, (3R,5S)-3,5-Dimethyl-piperazine-1-carboxylic acid (3-{6-amino-5-[1-(2,6-dichloro-3-fluoro-phenyl)-ethoxy]-pyridin-3-yl}-prop-2-ynyl)-amide], for which the IC50 is 0.063 µM.

With `CC(Oc1cc(-c2ccc(C(=O)N3CCC(N4CCCC4)CC3)cc2)cnc1N)c1c(Cl)cccc1Cl` (stereo not shown) [Example I-410, (4-{6-Amino-5-[1-(2,6-dichloro-phenyl)-ethoxy]-pyridin-3-yl}-phenyl)-(4-pyrrolidin-1-yl-piperidin-1-yl)-methanone], the IC50 was found to be 0.055 µM.

As to `CC(Oc1cc(OCc2ccccn2)cnc1N)c1c(F)ccc(F)c1Cl` (stereo not shown) [Example I-539, 3-[1-(2-Chloro-3,6-difluoro-phenyl)-ethoxy]-5-(pyridin-2-ylmethoxy)-pyridin-2-ylamine], the IC50 turned out to be 3.2 µM.

Consider `CC(C)CCOc1cnc(N)c(OC(C)c2c(F)ccc(F)c2Cl)c1` (stereo not shown) [Example I-531, 3-[1-(2-Chloro-3,6-difluoro-phenyl)-ethoxy]-5-(3-methyl-butoxy)-pyridin-2-ylamine], for which the half-maximal inhibitory concentration (IC50) was 2.4 µM.

Consider `CC(Oc1cc(-c2ccc(NC(=O)NC3CCN(C)CC3)cc2)cnc1N)c1c(Cl)ccc(F)c1Cl` (stereo not shown) [Example I-377, 1-(4-{6-Amino-5-[1-(2,6-dichloro-3-fluoro-phenyl)-ethoxy]-pyridin-3-yl}-phenyl)-3-(1-methyl-pipendin-4-yl)-urea], for which the 50% inhibitory concentration (IC50) stood at 0.04 µM.

On to `Nc1ncc(-c2cccnc2)cc1OCc1ccccc1Cl` [Example I-493], for which the IC50 stood at 4.6 µM.

The experiment is the same for the next values; noted with them: read-out: Met IC50.
As to `CN(C)[C@H]1CCN(C(=O)c2ccc(-c3cnc(N)c(OCc4c(F)ccc(F)c4Cl)n3)cc2)C1` [II-39, {4-[5-Amino-8-(2-chloro-3,6-difluoro-benzyloxy)-pyrazin-2-yl]-phenyl}-[(3S)-3-dimethylamino-pyrrolidin-1-yl]-methanone], the IC50 worked out at 0.67 µM.

Consider `CN(C)[C@H]1CCN(C(=O)c2ccc(-c3cnc(N)c(OCc4ccccc4C#N)c3)cc2)C1` [Example I-163, 2-{2-Amino-5-[4-((3S)-3-dimethylamino-pyrrolidine-1-carbonyl)-phenyl]-pyridin-3-yloxymethyl}-benzonitrile], for which the IC50 was more than 20 µM.

As for `Nc1ncc(-c2ccc(OCC(=O)N3CCC[C@H]3CN3CCCC3)cc2)cc1OCc1c(Cl)cccc1Cl` [Example I-57, 2-{4-[6-Amino-5-(2,6-dichloro-benzyloxy)-pyridin-3-yl]-phenoxy}-1-[(2S)-2-pyrrolidin-1-ylmethyl-pyrrolidin-1-yl]-ethanone], the IC50 stood at 0.5 µM.

Consider `CC(Oc1nc(-c2cccc(C(=O)NC3CCN(C)CC3)c2)cnc1N)c1c(F)ccc(F)c1Cl` (stereo not shown) [II-98, 3-{5-Amino-6-[1-(2-chloro-3,6-difluoro-phenyl)-ethoxy]-pyrazin-2-yl}-N-(1-methyl-piperidin-4-yl)-benzamide], for which the IC50 was 0.21 µM.

For the compound `CC(Oc1nc(-c2cccc(C(=O)NCCCN3CCOCC3)c2)cnc1N)c1c(Cl)ccc(F)c1Cl` (stereo not shown) [II-135, 3-{5-Amino-6-[1-(2,6-dichloro-3-fluoro-phenyl)-ethoxy]-pyrazin-2-yl}-N-(3-morpholin-4-yl-propyl)-benzamide], the IC50 is 0.26 µM.

For the compound `CN1CCN(C(=O)c2cccc(-c3cnc(N)c(OCc4c(F)ccc(F)c4Cl)n3)c2)CC1` [II-48, {3-[5-Amino-6-(2-chloro-3,6-difluoro-benzyloxy)-pyrazin-2-yl]-phenyl}-(4-methyl-piperazin-1-yl)-methanone], the half-inhibitory concentration (IC50) was 2.85 µM.

As for `Nc1ncc(-c2ccc(NS(=O)(=O)CCN3CCC(O)CC3)cc2)nc1OCc1c(F)ccc(F)c1Cl` [II-11, 2-(4-Hydroxy-piperidin-1-yl)-ethanesulfonic acid {4-[5-amino-6-(2-chloro-3,6-difluoro-benzyloxy)-pyrazin-2-yl]-phenyl}-amide], the IC50 was 0.65 µM.

For `CN1CCN(C(=O)c2ccc(-c3cnc(N)c(OCc4c(F)cccc4Cl)c3)cc2)CC1` [Example I-146, {4-[6-Amino-5-(2-chloro-6-fluoro-benzyloxy)-pyridin-3-yl]-phenyl}-(4-methyl-piperazin-1-yl)-methanone], the IC50 was 1.94 µM.

In the case of `CC(Oc1nc(-c2cccc(C(=O)NCCN3CCOCC3)c2)cnc1N)c1c(F)ccc(F)c1Cl` (stereo not shown) [II-100, 3-{5-Amino-6-[1-(2-chloro-3,6-difluoro-phenyl)-ethoxy]-pyrazin-2-yl}-N-(2-morpholin-4-yl-ethyl)-benzamide], the IC50 was determined as 0.31 µM.

On to `CC(Oc1nc(-c2ccc(C(=O)N3CCN(C)CC3)cn2)cnc1N)c1c(Cl)ccc(F)c1Cl` (stereo not shown) [II-202, (6-{5-Amino-6-[1-(2,6-dichloro-3-fluoro-phenyl)-ethoxy]-pyrazin-2-yl}-pyridin-3-yl)-(4-methyl-piperazin-1-yl)-methanone], for which the half-inhibitory concentration (IC50) turned out to be 0.15 µM.

Consider `Nc1ncc(-c2ccc(C(=O)N3CCC[C@@H]3CN3CCCC3)cc2)nc1OCc1c(F)ccc(F)c1Cl` [II-34, {4-[5-Amino-6-(2-chloro-3,6-difluoro-benzyloxy)-pyrazin-2-yl]-phenyl)-[(2R)-2-pyrrolidin-1-ylmethyl-pyrrolidin-1-yl]-methanone], for which the IC50 was found to be 0.15 µM.

As to `Nc1ncc(-c2ccccc2Oc2ccccc2)cc1OCc1c(Cl)cccc1Cl` [Example I-20, 3-(2,6-Dichloro-benzyloxy)-5-(2-phenoxy-phenyl)-pyridin-2-ylamine], the half-inhibitory concentration (IC50) is more than 20 µM.

For the compound `Nc1ncc(-c2ccc(OCCN3CCOCC3)cc2)cc1OCc1cccc2ccccc12` [Example I-107, 5-[4-(2-Morpholin-4-yl-ethoxy)-phenyl]-3-(naphthalen-1-ylmethoxy)-pyridin-2-ylamine], the half-maximal inhibitory concentration (IC50) amounted to 7.7 µM.

`CC(=O)N1CCN(Cc2c[nH]c3ccc(-c4cnc(N)c(OCc5c(Cl)cccc5Cl)c4)cc23)CC1` [Example I-68, 1-(4-{5-[6-Amino-5-(2,6-dichloro-benzyloxy)-pyridin-3-yl]-1H-indol-3-ylmethyl}-piperazin-1-yl)-ethanone]: the 50% inhibitory concentration (IC50) came out at 2.18 µM.

As for `COc1cccc(-c2cnc(N)c(OCc3c(Cl)cccc3Cl)c2)c1` [Example I-32, 3-(2,6-Dichloro-benzyloxy)-5-(3-methoxy-phenyl)-pyridin-2-ylamine], the half-inhibitory concentration (IC50) worked out at 4.01 µM.

Regarding `Nc1ncc(-c2ccc(C(=O)N3CC[C@H](N)C3)cc2)cc1OCc1ccccc1Cl` [Example I-154, {4-[6-Amino-5-(2-chloro-benzyloxy)-pyridin-3-yl]-phenyl}-[(3S)-3-amino-pyrrolidin-1-yl]-methanone], the IC50 worked out at 1.44 µM.
